Test results from US20260234139A1, “PGDH INHIBITORS AND METHODS OF MAKING AND USING” (Epirium Bio Inc., priority 2023, published 2026).

Experiments:
[1] = test system: A549; experiment: A549 EC50 (cell assay, method not described); format: cell-based
[2] = molecular target: T1, 15-PGDH/HPGD (Homo sapiens, UniProt P15428); experiment: hPGDH inhibitor screening biochemical assay; conditions: 10 nM enzyme, 15 μM Prostaglandin E2, 0.25 mM NAD, fluorescence ex/em 340/485 nm
T1 construct: purchased R&D System 5660-DH
T1 sequence (P15428 1-266): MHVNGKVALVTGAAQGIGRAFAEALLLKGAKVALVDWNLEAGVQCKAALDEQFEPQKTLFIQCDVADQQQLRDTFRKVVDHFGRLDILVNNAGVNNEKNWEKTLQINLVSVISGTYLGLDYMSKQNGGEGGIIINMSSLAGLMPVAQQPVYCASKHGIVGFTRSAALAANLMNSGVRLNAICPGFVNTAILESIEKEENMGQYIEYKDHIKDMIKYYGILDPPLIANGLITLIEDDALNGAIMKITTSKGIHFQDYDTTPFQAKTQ
Method in brief: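 Recombinant 15-PGDH (10 nM) preincubated with compound 10 min at 37° C, then 15 μM PGE2 and 0.25 mM NAD⁺ added for 10 min at room temperature in 50 mM Tris-HCl pH 7.5, 0.01% Tween 20. NADH fluorescence at ex/em 340/485 nm; 10-point dose response.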

Row | EC50 ([1]; Homo sapiens, A549, A549) [nM] | IC50 [2] [nM] | EC50 ([1]; A549) [nM] | Structure (SMILES)
1 | 100 to 1000 | < 100 |  | O[C@H](c1cnc2c(cnn2-c2cccc(-c3nnc[nH]3)c2)c1)C1(OCC(F)F)CC1 [Compound 73A]
2 | ≥ 1000 | ≥ 1000 |  | CCOC1([C@H](O)c2cnc3c(cnn3-c3cccc(-c4nnc[nH]4)c3)c2)CC1 [Compound 63A]
3 | < 100 | < 100 |  | O=C(O)c1ccc(-n2ncc3cc([C@H](O)COC4(C(F)(F)F)CCC4)cnc32)cc1 [Compound 115B]
4 |  | < 100 | < 100 | CC(C)C[C@@H](O)[C@@H](O)c1cnc2c(ccn2-c2cccc(-c3nnc[nH]3)c2)c1 [Compound 3D, (1S,2R)-4-methyl-1-[1-[3-(4H-1,2,4-triazol-3-yl)phenyl]pyrrolo[2,3-b]pyridin-5-yl]pentane-1,2-diol]
5 |  | < 100 | < 100 | CCOC(C)(C)C(O)c1cnc2c(cnn2-c2cccc(-c3nnc[nH]3)c2)c1 (single isomer, unassigned) [Compound 34A]
6 | ≥ 1000 | ≥ 1000 |  | CSc1ccc(-n2ncc3cc([C@H](O)COC4CCC4)cnc32)cc1 [Compound 119B]
7 | < 100 | < 100 |  | CCOC[C@@H](O)c1cnc2c(cnn2-c2cccc(-c3nnc[nH]3)c2)c1 [Compound 23B]
8 | ≥ 1000 | ≥ 1000 |  | COC1([C@H](O)c2cnc3c(cnn3-c3cccc(-c4nnc[nH]4)c3)c2)CCC1 [Compound 65B]
9 | ≥ 1000 | < 100 |  | O=C(O)[C@H]1CCN(c2ccc(-n3ncc4cc([C@@H](O)COC5CCC5)cnc43)cc2)C1 [Compound 87A]
10 | < 100 | < 100 |  | O[C@H](COC1CC1)c1cnc2c(cnn2-c2cccc(-c3nnc[nH]3)c2)c1 [Compound 37B]
11 | ≥ 1000 | < 100 |  | O=C(O)c1ccc(-n2ccc3nc([C@@H](O)COCC4CC4)cnc32)cc1 [Compound 112A]
12 | < 100 | < 100 |  | O[C@@H](c1cnc2c(cnn2-c2cccc(-c3nnc[nH]3)c2)c1)C1CC2CC2C1 (some centres unmarked) [Compound 50A]
13 | 100 to 1000 | < 100 |  | O[C@@H](COC1CC1)c1cnc2c(ccn2-c2cccc(-c3nnc[nH]3)c2)n1 [Compound 38B]
14 | < 100 | < 100 |  | O[C@H](COC1CC1)c1cnc2c(ccn2-c2cccc(-c3nnc[nH]3)c2)n1 [Compound 38A]
15 | 100 to 1000 | < 100 |  | NC(=O)c1ccc(-n2ncc3cc([C@@H](O)COC4CCC4)cnc32)cc1 [Compound 81B]
16 | ≥ 1000 | ≥ 1000 |  | O=C(NC[C@H](O)c1cnc2c(cnn2-c2cccc(-c3nnc[nH]3)c2)c1)C1CC1 [Compound 39A]
17 | ≥ 1000 | ≥ 1000 |  | CN(C)C(=O)c1ccc(-n2ncc3cc([C@@H](O)COC4CCC4)cnc32)cc1 [Compound 80B]
18 | < 100 | < 100 |  | CC1(OC[C@@H](O)c2cnc3c(cnn3-c3ccc(C(=O)O)cc3)c2)CCC1 [Compound 90B]

The remaining lines, values behind:

Row | Structure (SMILES) | EC50 ([1]; Homo sapiens, A549, A549) [nM] | IC50 [2] [nM] | EC50 ([1]; A549) [nM]
19 | CC(C)CC[C@@H](O)c1cnc2c(ccn2-c2ccc(C(=O)O)cc2)n1 [Compound 40B] | < 100 | < 100 | 
20 | O[C@H](c1cnc2c(cnn2-c2ccc3nc(N4CCOCC4)nn3c2)c1)C1COC1 [Compound 64A] | 100 to 1000 | 100 to 1000 | 
21 | CCCC(F)(F)[C@@H](O)c1cnc2c(ccn2-c2cccc(-c3nnc[nH]3)c2)n1 [Compound 35A] | < 100 | < 100 | 
22 | CSc1ccc(-n2ncc3cc([C@@H](O)COC4CCC4)cnc32)cc1 [Compound 119A] | 100 to 1000 | < 100 | 
23 | CC(C)(O)CC[C@@H](O)c1cnc2c(cnn2-c2cccc(-c3nnc[nH]3)c2)c1 [Compound 56B] | 100 to 1000 | < 100 | 
24 | CC(C)NC[C@@H](O)c1cnc2c(ccn2-c2cccc(-c3nnc[nH]3)c2)n1 [Compound 22B] | ≥ 1000 | 100 to 1000 | 
25 | CC(C)OC[C@@H](O)c1cnc2c(cnn2-c2ccc(CCCC(=O)O)c(F)c2)c1 [Compound 77A] | < 100 | < 100 | 
26 | O[C@@H](c1cnc2c(ccn2-c2cccc(-c3nnc[nH]3)c2)c1)C1CCC1 [Compound 10B] | < 100 | < 100 | 
27 | CCCCC(OC)c1cnc2c(ccn2-c2cc(Cl)cc(-c3nnc[nH]3)c2)c1 (centres unmarked) [Compound 16] | 100 to 1000 | 100 to 1000 | 
28 | O[C@@H](COC1CCC1)c1cnc2c(cnn2-c2ccc(N3CCCC3)cc2)c1 [Compound 75B] | ≥ 1000 | ≥ 1000 | 
29 | COC(C)(C)CC[C@H](O)c1cnc2c(cnn2-c2cccc(-c3nnc[nH]3)c2)c1 [Compound 55A] | 100 to 1000 | < 100 | 
30 | O=C(O)c1ccc(-n2ncc3cc(C(O)C4CC(F)(F)C4)cnc32)cc1 (single isomer, unassigned) [Compound 45A] | 100 to 1000 | < 100 | 
31 | CC(C)NC[C@H](O)c1cnc2c(ccn2-c2cccc(-c3nnc[nH]3)c2)n1 [Compound 22A] | ≥ 1000 | ≥ 1000 | 
32 | O[C@@H](c1cnc2c(cnn2-c2cccc(-c3nnc[nH]3)c2)c1)[C@@H]1CCOC1 [Compound 68A] | < 100 | < 100 | 
33 | O=C(NC[C@@H](O)c1cnc2c(cnn2-c2cccc(-c3nnc[nH]3)c2)c1)C1CC1 [Compound 39B] | ≥ 1000 | 100 to 1000 | 
34 | O[C@@H](c1cnc2c(cnn2-c2cccc(-c3nnc[nH]3)c2)c1)C1CCOCC1 [Compound 52B] | < 100 | < 100 | 
